Measured values as given in patent US20200289520A1, “COMPOSITION AND METHOD FOR TREATING PERIPHERAL T-CELL LYMPHOMA AND CUTANEOUS T-CELL LYMPHOMA” (Rhizen Pharmaceuticals SA, priority 2017, published 2020).
Entries after “also recorded” stand apart in the source; their conditions may differ.

Experiments:
caspase-3 = experiment: Induction of caspase 3 in T-lymphoma cell lines; type: cell-based; conditions: 48 h incubation, fluorimetric; FIG. 3
Description: Cells (Jurkat, MOLT-4, CCRF-CEM, HuT-78 and HuT-102) were incubated with desired concentrations of Compound (A) for 48 h. An equal number of cells per well (0.3×10^6 cells) were used. Increase in apoptosis manifested by an elevation in caspase-3 levels was determined using a Caspase-3 kit from Millipore. Induction of Caspase 3 by Compound A was measured fluorimetrically.

pAKT = pAKT in patient-derived primary malignant T cells (Phosphoflow); type: cell-based, human; conditions: CTCL donors n=6, 1.5 h incubation then cytokine activation 30 min; FIG. 4
Description: (§1) The effect of Compound (A) on pAKT in patient-derived primary cells was also studied. Malignant T cells from Cutaneous T-cell Lymphoma (CTCL) patient donors (n=6) were purified using fluorescence-activated cell sorting (FACS) and cultured overnight in RPMI/1% BSA. Cells were incubated with desired concentrations of Compound (A) for 1.5 h followed by activation with a cytokine mixture (20 ng/ml IL2+5 ng/ml IL7+10 ng/ml IL15+10% FBS) for 30 min. pAKT was estimated using Phosphoflow and normalized to total AKT. Data were analyzed using Prism 5.0 software analysis. For apoptosis assays, FACS purified cells from CTCL donors (n=4) were cultured in RPMI/10% FBS+20 ng/ml IL2+5 ng/ml IL7+10 ng/ml IL15 with and without Compound (A), LY294002, or camptothecin for 48 h. Apoptosis was assayed by Annexin V/PI staining.

[1] = tested on: relapsed or refractory T-cell lymphoma; experiment: Phase I/Ib study in patients with relapsed or refractory T-cell lymphoma (PTCL and CTCL); type: in vivo, human; conditions: for ORR (objective response rate) / ORR (objective response rate), patients: oral BID
Description: This is a Phase I/Ib, 3+3 design study in patients with relapsed or refractory T-cell lymphoma
Compound (A) (tenalisib) was given orally twice a day in 28-day cycles and dose-limiting toxicities (DLTs) were assessed during the first cycle.
Intra-patient dose escalation was allowed following safety of higher doses. • Primary Objectives: The Safety, Pharmacokinetics (PK), Maximum Tolerated Dose (MTD) • Secondary Objectives: Pharmacodynamics, Overall response rate (ORR), Duration of response (DOR)
Histologically confirmed T-cell Non-Hodgkin's lymphoma.
Relapsed after, or refractory to ≥1 prior treatments, and not eligible for transplantation and or approved therapy; ECOG performance status ≤2; patient with measurable or evaluable disease; Adequate organ system function: ANC ≥750/μL; platelets ≥50 K/μL.
Prior therapy that inhibits PI3K/BTK/mTOR were part of exclusion criteria.

phospho-AKT (Ser473) = experiment: Reduction of pAKT in T-cell lymphoma cell lines (Western blotting); type: cell-based; conditions: Western blot normalized to actin, FIG. 2
Description: AKT, a serine threonine kinase mediates the downstream effects of PI3K activity and modulates several cell processes including survival and growth. Reduction of pAKT by Compound (A) in representative cell lines was determined by Western blotting using a phospho-AKT (Ser^473) antibody. Band intensity was measured and quantified using ImageJ software and normalized to actin.

[2] = tested on: MOLT-4 (human T lymphoblast cell line) xenograft; experiment: MOLT-4 subcutaneous mouse xenograft model; type: in vivo
Description: The anti-tumor effect of Compound (A) was determined in a MOLT-4 (representing human T lymphoblast cell line) subcutaneous mouse xenograft model. Briefly, 10^6 cells were injected into the flank region. Mice were randomized according to body weight into […] groups of five. A week after tumor cell injection, mice either received the vehicle, oral administration of Compound (A) at 50 mg/kg/BID Compound (A), or administration of cytarabine (Ara-C), over an 18-day study period. At the end of the study period, animals were sacrificed and the tumors harvested.

[3] = tested on: Malignant T cells from Cutaneous T-cell Lymphoma (CTCL) patient donors; experiment: Apoptosis by Annexin V/PI staining in purified malignant T-cells from CTCL donors; type: cell-based, human; conditions: CTCL donors n=4, 48 h, FIG. 5
Description: as §1

[4] = tested on: T-cell lymphoma cell lines (Jurkat, MOLT-4, CCRF-CEM, HuT-78, HuT-102, Sez4 and HH); experiment: Anti-proliferative effect in T-cell lymphoma cell lines (MTT assay); type: cell-based; conditions: 48-72 h incubation, FIG. 1
Description: Compound (A) was tested across a panel of T-cell lymphoma cell lines (Jurkat, MOLT-4, CCRF-CEM, HuT-78, HuT-102, Sez4 and HH). Cells were plated in 96-well plates and incubated with desired concentrations of Compound A for 48-72 h. At the end of the incubation period, MTT ((3-(4,5-dimethylthiazol-2-yl)-2,5-diphenyltetrazolium bromide)) was added. The plate was placed on a shaker for 5 min to mix the formazan and the optical density at 560 nm was measured on a spectrophotometer. Data were plotted using Graphpad prism for calculation of the IC50 concentrations.

CC[C@H](Nc1ncnc2[nH]cnc12)c1oc2ccccc2c(=O)c1-c1cccc(F)c1 [Compound (A), (S)-2-(1-((9H-purin-6-yl)amino)propyl)-3-(3-fluorophenyl)-4H-chromen-4-one]
caspase-3 induction (caspase-3): dose-dependent increase in caspase-3 | inhibition of pAKT in purified malignant T-cells (pAKT): dose-dependent inhibition of pAKT | CR (complete response) ([1]; All, 58 treated/35 evaluable): (9) % | CR (complete response), patients ([1]; All, 58 treated/35 evaluable): 3 n | DCR (CR + PR + SD) ([1]; All, 58 treated/35 evaluable): 74% | DCR (CR + PR + SD), patients ([1]; All, 58 treated/35 evaluable): 26 n | PD (progressive disease) ([1]; All, 58 treated/35 evaluable): 23% | PD (progressive disease), patients ([1]; All, 58 treated/35 evaluable): 8 n | PR (partial response) ([1]; All, 58 treated/35 evaluable): (37) % | PR (partial response), patients ([1]; All, 58 treated/35 evaluable): 13 n | ORR (objective response rate) ([1]; All, 58 treated/35 evaluable): (46) % | ORR (objective response rate), patients ([1]; All, 58 treated/35 evaluable): 16 n | DCR (CR + PR + SD) ([1]; CTCL, 30 treated/20 evaluable): 80% | DCR (CR + PR + SD), patients ([1]; CTCL, 30 treated/20 evaluable): 16 n | PD (progressive disease) ([1]; CTCL, 30 treated/20 evaluable): 20% | PD (progressive disease), patients ([1]; CTCL, 30 treated/20 evaluable): 4 n | PR (partial response) ([1]; CTCL, 30 treated/20 evaluable): (45) % | PR (partial response), patients ([1]; CTCL, 30 treated/20 evaluable): 9 n | ORR (objective response rate) ([1]; CTCL, 30 treated/20 evaluable): (45) % | ORR (objective response rate), patients ([1]; CTCL, 30 treated/20 evaluable): 9 n | CR (complete response) ([1]; PTCL, 28 treated/15 evaluable): (20) % | CR (complete response), patients ([1]; PTCL, 28 treated/15 evaluable): 3 n | DCR (CR + PR + SD) ([1]; PTCL, 28 treated/15 evaluable): 74% | DCR (CR + PR + SD), patients ([1]; PTCL, 28 treated/15 evaluable): 10 n | PD (progressive disease) ([1]; PTCL, 28 treated/15 evaluable): 27% | PD (progressive disease), patients ([1]; PTCL, 28 treated/15 evaluable): 4 n | PR (partial response) ([1]; PTCL, 28 treated/15 evaluable): (27) % | PR (partial response), patients ([1]; PTCL, 28 treated/15 evaluable): 4 n | ORR (objective response rate) ([1]; PTCL, 28 treated/15 evaluable): (47) % | ORR (objective response rate), patients ([1]; PTCL, 28 treated/15 evaluable): 7 n | endogenous pAKT expression (phospho-AKT (Ser473)): dose-dependent reduction | tumor growth ([2]; 50 mg/kg BID oral, 18-day study period, vs vehicle, FIG. 6): significantly delayed tumor growth; also recorded: significant delay in tumor growth | tolerability (body weight, adverse effects) ([2]; mice, daily dose of 50 mg/kg): without body weight loss or noticeable adverse effects | apoptosis in purified malignant T-cells [3]: dose-dependent increases in apoptosis | proliferation / growth of T-lymphoma cell lines [4]: dose-dependent reduction in proliferation
